Data from patent US8940760B2, “Pyrazolo pyridine derivatives as NADPH oxidase inhibitors” (Genkyotex SA, priority 2008, dated 2015).

Legend:
NOX activities [1] = assay: Nitroblue tetrazolium (NBT) test of intracellular and extracellular superoxide in cells; type: cell-based; details: DPI at final concentration of 10 μM, 'usually'
Procedure: Intracellular and extracellular superoxide was measured by a colorimetric technique using a quantitative nitroblue tetrazolium (NBT) test. SOD-inhibitable conversion of NBT to formazan, a fine blue precipitate, in the presence of superoxide anion was measured using Fluostar Optima spectrometer (BMG labtech). Following incubation with appropriate stimuli, cells were trypsinized (1× Trypsin-EDTA), collected by centrifugation, and washed with PBS to remove medium. 5×10^5 cells were plated on 48-well plates and incubated in Hank's balanced salt solution containing 0.5 mg/mL NBT with or without 800 U/mL SOD in the presence or absence of compounds according to the invention. As a control, DPI was included at a final concentration of 10 μM. After 2.5 h, cells were fixed and washed with methanol to remove non reduced NBT. The reduced formazan was then dissolved in 230 μl of 2M potassium hydroxide and in 280 μl of dimethylsulfoxide. The absorption was measured at 630 nm. For calculation, the absorbance at 630 nm was normalized for each individual well. The mean of the four blank values was substracted from each corrected value for each time point. NOX activities were expressed as % of the activity in control cells. Residual activity of DPI-treated cells was usually <10%.

NOX activities [2] = assay: Chemiluminescence (luminol) measurement of ROS in cells; type: cell-based; details: 'usually'
Procedure: ROS was measured using the chemiluminescent probe luminol. Cells were cultured and plated as for Amplex Red except that the Amplex Red agent was replaced by 10 μg/mL luminol (Sigma 09235). Light emission was recorded continuously at 37° C. for 60 minutes using the luminescence function of the FluoStar Optima fluorescent plate reader. The mean of the four blank values was substracted from each corrected value for each time point. NOX activities were expressed as % of the activity in control cells. Residual activity of DPI-treated cells was usually <10%.

NOX activity = assay: Amplex Red measurement of extracellular hydrogen peroxide (NOX activity) in DMSO-differentiated HL60 cells; type: cell-based, human; details: DPI at final concentration of 10 μM, 'usually'
Procedure: Human acute myeloid leukemia cell line HL-60 was cultured in RPMI 1640 (Invitrogen) supplemented with 10% heat-inactivated calf serum, 2 mM glutamine, 100 U/mL penicillin (Sigma), and 100 μg streptomycin (Sigma) at 37° C. under a humidified atmosphere of 5% CO2. HL60 differentiation to the neutrophil phenotype was triggered by adding Me2SO (final concentration 1.25% v/v for 6 days) to the culture medium.
Extracellular hydrogen peroxide was measured using Amplex UltraRed (Molecular Probes). Cells were trypsinized (1× Trypsin-EDTA), collected by centrifugation, and resuspended in HBSS supplemented with 1% glucose. Cells were seeded into black 96-well plates at a density of 50,000 cells in 200 μl testing buffer (HBSS 1% glucose containing 0.005 U/mL horseradish peroxidase (Roche) and 50 μM Amplex Red in the presence or absence of compounds according to the invention. As a control, DPI was included at a final concentration of 10 μM. The plates were placed in the fluorescent Optima Fluorescent plate reader and kept at 37° C. during 20 min. Fluorescence was measured for 15 min with excitation and emission wavelengths of 544 nm and 590 nm respectively. NOX activities were expressed as % of the activity in control cells. Residual activity of DPI-treated cells was usually <10%.

NOX activities [3] = assay: H2DCF-DA fluorescence in TGF-β stimulated HUVEC; type: cell-based, human; details: HUVEC stimulated with TGF-β, 'usually'
Procedure: HUVEC are cultured in endothelial basal medium supplemented with hydrocortisone (1 μg/mL, CalbioChem), bovine brain extract (12 μg/mL), gentamicin (50 μg/mL, CalbioChem), amphotericin B (50 ng/mL, CalBioChem EGF (10 ng/mL, and 10% FCS until the fourth passage. When the fifth passage was started, cells were cultured with a lower concentration of FCS (2%) in the absence of EGF, if not indicated otherwise. All experiments were done with cells of the fifth passage. The cells were incubated with OxLDL (oxidized low-density lipoprotein) or its buffer as control for 24 h, before detection of O2^− formation.
HUVEC were plated on coverslips and made quiescent overnight in 0.5% BSA before stimulation with TGF-β. Cells were loaded for 10 minutes with 5 μM CM-H2DCFDA in phenol-red-free medium in the dark and then treated with TGF-β (R&D Systems) in the presence or absence of compounds according to the invention. Cells were then visualized by immunofluorescence microscopy after fixation and staining of the nuclei with DAPI or examined live using confocal microscopy. DCF fluorescence was visualized at an excitation wavelength of 488 nm and emission at 515 to 540 nm. […] For calculation, the absorbance at […] was normalized to absorbance at […] for each individual well. […] NOX activities were expressed as % of the activity in control cells. […]

Measured: Residual activity of DPI-treated cells (NOX activity as % of control cells)

c1ccc([I+]c2ccccc2)cc1 [DPI, Diphenyl-iodonium]
< 10%: all assays above
